From ChEMBL document CHEMBL1201862, “PubChem BioAssay data set” (2004)
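Dose response: 5 concentrations. Exposure: 48 h. Format: 96-well plates. Endpoint: linear interpolation; highest concentration if not reached. GI50 = concentration required for 50% inhibition of growth.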 The source made the active and inactive calls. Cut-off read from the data, not from the text of the source: active = GI50 up to about 1.1 µM and inactive = higher.

How the values were obtained:
Assay in all cases: NCI-60 cell line screen, 48 h
SN12C = test system: SN12C
SR = test system: SR
OVCAR-4 = test system: OVCAR-4
SK-MEL-28 = test system: SK-MEL-28
UO-31 = test system: UO-31
Hs-578T = test system: Hs-578T
NCI-H23 = test system: NCI-H23
A498 = test system: A498
OVCAR-8 = test system: OVCAR-8
HCC 2998 = test system: HCC 2998
M14 = test system: M14
OVCAR-5 = test system: OVCAR-5
NCI-H226 = test system: NCI-H226
KM12 = test system: KM12
NCI-H522 = test system: NCI-H522
MDA-MB-231 = test system: MDA-MB-231
EKVX = test system: EKVX
SK-OV-3 = test system: SK-OV-3
UACC-62 = test system: UACC-62
COLO 205 = test system: COLO 205

Structure (SMILES)	GI50 (SN12C)	GI50 (SR)	GI50 (OVCAR-4)	GI50 (SK-MEL-28)	GI50 (UO-31)	GI50 (Hs-578T)	GI50 (NCI-H23)	GI50 (A498)	GI50 (OVCAR-8)	GI50 (HCC 2998)	GI50 (M14)	GI50 (OVCAR-5)	GI50 (NCI-H226)	GI50 (KM12)	GI50 (NCI-H522)	GI50 (MDA-MB-231)	GI50 (EKVX)	GI50 (SK-OV-3)	GI50 (UACC-62)	GI50 (COLO 205)
CC(C)CCCCCCCCCCCCC(=O)NCC(=O)NC1C(O)C(O)C(Nc2[nH]cnc3ncnc2-3)OC1C(O)CO (stereo unspecified)	0.000753 µM (active)	0.426 µM (active)	0.000492 µM (active)	0.0316 µM (active)	0.000574 µM (active)	0.172 µM (active)	0.00125 µM (active)	0.000248 µM (active)	0.000578 µM (active)	0.00018 µM (active)	0.191 µM (active)	0.00199 µM (active)	0.000552 µM (active)	0.000575 µM (active)	0.000664 µM (active)	0.182 µM (active)	0.00175 µM (active)	0.000671 µM (active)	0.000519 µM (active)	
COc1ccc(-n2nnnc2C2(Nc3ccccc3)CCN(Cc3ccccc3)CC2)cc1	7.29 µM (inactive)	5.3 µM (inactive)	21.3 µM (inactive)	13.5 µM (inactive)	7.48 µM (inactive)	4.51 µM (inactive)	21 µM (inactive)	12.8 µM (inactive)	19 µM (inactive)	3.93 µM (inactive)	14.2 µM (inactive)	15.7 µM (inactive)	25.2 µM (inactive)	3.77 µM (inactive)		10.4 µM (inactive)	21.6 µM (inactive)	13.6 µM (inactive)	10.5 µM (inactive)	6.82 µM (inactive)
COc1ccc(/C=C/[N+](=O)[O-])cc1	16.3 µM (inactive)	2.03 µM (inactive)	16.7 µM (inactive)	5.81 µM (inactive)	11.3 µM (inactive)	3.05 µM (inactive)	9.75 µM (inactive)	5.15 µM (inactive)	2.67 µM (inactive)	< 0.01 µM (active)	2.79 µM (inactive)	14.4 µM (inactive)	3.6 µM (inactive)	3.18 µM (inactive)	20.4 µM (inactive)	19.4 µM (inactive)	13.2 µM (inactive)		14.9 µM (inactive)	4.04 µM (inactive)
CN1CC2=C(N=C(S)NC2c2ccc(Cl)cc2)/C(=C/c2ccc(Cl)cc2)C1 (stereo unspecified)	17.2 µM (inactive)	15.6 µM (inactive)		18.5 µM (inactive)	25.8 µM (inactive)	16.6 µM (inactive)	20 µM (inactive)	> 10 µM (inactive)	17.5 µM (inactive)	16.6 µM (inactive)	18.3 µM (inactive)	15.8 µM (inactive)	> 10 µM (inactive)	18.5 µM (inactive)	15.5 µM (inactive)	20.8 µM (inactive)	19.9 µM (inactive)	17.3 µM (inactive)	18.2 µM (inactive)	17.4 µM (inactive)
Cc1c(C(=O)N2CCN(c3ccc([N+](=O)[O-])cc3)CC2)[n+]([O-])c2cc(Cl)c(Cl)cc2[n+]1[O-]	18.4 µM (inactive)	21.2 µM (inactive)	10.8 µM (inactive)	26.4 µM (inactive)		22.6 µM (inactive)	14.8 µM (inactive)	7.19 µM (inactive)	16.9 µM (inactive)	13.2 µM (inactive)	27.1 µM (inactive)	21.6 µM (inactive)		36.8 µM (inactive)	16.7 µM (inactive)	21.2 µM (inactive)	20.6 µM (inactive)	15.9 µM (inactive)	15.8 µM (inactive)	26.4 µM (inactive)
CC(NC1=NCCO1)c1cccs1 (stereo unspecified)	60.7 µM (inactive)	26.4 µM (inactive)	30.8 µM (inactive)	23.1 µM (inactive)	24.9 µM (inactive)	17.8 µM (inactive)	50.2 µM (inactive)	74 µM (inactive)	41 µM (inactive)	17.7 µM (inactive)	18.2 µM (inactive)	69.5 µM (inactive)	46.8 µM (inactive)	15.7 µM (inactive)		76.7 µM (inactive)	88.1 µM (inactive)	57.9 µM (inactive)	16.5 µM (inactive)	19.5 µM (inactive)
O=C(N/N=C1\CCc2ccccc21)N/N=C1\CCc2ccccc21	> 100 µM (inactive)	0.055 µM (active)		> 100 µM (inactive)	> 100 µM (inactive)	> 100 µM (inactive)	> 100 µM (inactive)	> 100 µM (inactive)	> 100 µM (inactive)	> 100 µM (inactive)	13.5 µM (inactive)	> 100 µM (inactive)	> 100 µM (inactive)	> 100 µM (inactive)	> 100 µM (inactive)	12.9 µM (inactive)		> 100 µM (inactive)	> 100 µM (inactive)	> 100 µM (inactive)
